How the values were obtained:
Assay in all cases: biochemical
Parameters in all cases: KINOMEscan active-site competition binding, percent of control (100 = no competition)
Settings in all cases: competition binding, percent control
ACVR2B = ACVR2B (Homo sapiens, UniProt Q13705)
PRKX = PRKX (Homo sapiens, UniProt P51817)
ULK2 = ULK2 (Homo sapiens, UniProt Q8IYT8)
MST1R = MST1R (Homo sapiens, UniProt Q04912)
INSRR = INSRR (Homo sapiens, UniProt P14616)
IRAK1 = IRAK1 (Homo sapiens, UniProt P51617)
TNK1 = TNK1 (Homo sapiens, UniProt Q13470)
BRK = molecular target: T1, BRK (Homo sapiens, UniProt Q13882)
T1 construct: gene PTK6

RIOK2 = RIOK2 (Homo sapiens, UniProt Q9BVS4)
LYN = LYN (Homo sapiens, UniProt P07948)
BRAF = BRAF (Homo sapiens, UniProt P15056)
CAMKK1 = CAMKK1 (Homo sapiens, UniProt Q8N5S9)
SRPK3 = SRPK3 (Homo sapiens, UniProt Q9UPE1)
[1] = molecular target: T2, TYK2(JH2domain-pseudokinase) (Homo sapiens, UniProt P29597)
T2 construct: JH2domain-pseudokinase

MKK7 = molecular target: T3, MKK7 (Homo sapiens, UniProt O14733)
T3 construct: gene MAP2K7

DMPK = DMPK (Homo sapiens, UniProt Q09013)
PIK3CA = PIK3CA (Homo sapiens, UniProt P42336)
FLT1 = FLT1 (Homo sapiens, UniProt P17948)
NDR1 = molecular target: T4, NDR1 (Homo sapiens, UniProt Q15208)
T4 construct: gene STK38

KIT(A829P) = KIT(A829P) (Homo sapiens, UniProt P10721, A829P)
KIT(D816V) = KIT(D816V) (Homo sapiens, UniProt P10721, D816V)
ARK5 = molecular target: T5, ARK5 (Homo sapiens, UniProt O60285)
T5 construct: gene NUAK1

DAPK1 = DAPK1 (Homo sapiens, UniProt P53355)

Chain of CAMKK1 (Q8N5S9 whole entry): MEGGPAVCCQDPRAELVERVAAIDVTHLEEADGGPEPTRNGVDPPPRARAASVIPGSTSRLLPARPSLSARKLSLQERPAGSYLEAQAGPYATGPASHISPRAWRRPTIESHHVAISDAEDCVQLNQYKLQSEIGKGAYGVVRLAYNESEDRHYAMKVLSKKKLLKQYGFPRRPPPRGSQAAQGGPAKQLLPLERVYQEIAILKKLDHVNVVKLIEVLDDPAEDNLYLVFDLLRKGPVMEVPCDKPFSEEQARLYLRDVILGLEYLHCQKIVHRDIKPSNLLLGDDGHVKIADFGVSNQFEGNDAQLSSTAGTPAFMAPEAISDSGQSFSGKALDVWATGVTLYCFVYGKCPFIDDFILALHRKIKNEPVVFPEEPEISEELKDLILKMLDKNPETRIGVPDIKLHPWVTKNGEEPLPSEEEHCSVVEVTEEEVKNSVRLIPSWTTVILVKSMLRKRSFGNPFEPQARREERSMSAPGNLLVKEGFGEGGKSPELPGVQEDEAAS
T2 sequence (P29597 whole entry): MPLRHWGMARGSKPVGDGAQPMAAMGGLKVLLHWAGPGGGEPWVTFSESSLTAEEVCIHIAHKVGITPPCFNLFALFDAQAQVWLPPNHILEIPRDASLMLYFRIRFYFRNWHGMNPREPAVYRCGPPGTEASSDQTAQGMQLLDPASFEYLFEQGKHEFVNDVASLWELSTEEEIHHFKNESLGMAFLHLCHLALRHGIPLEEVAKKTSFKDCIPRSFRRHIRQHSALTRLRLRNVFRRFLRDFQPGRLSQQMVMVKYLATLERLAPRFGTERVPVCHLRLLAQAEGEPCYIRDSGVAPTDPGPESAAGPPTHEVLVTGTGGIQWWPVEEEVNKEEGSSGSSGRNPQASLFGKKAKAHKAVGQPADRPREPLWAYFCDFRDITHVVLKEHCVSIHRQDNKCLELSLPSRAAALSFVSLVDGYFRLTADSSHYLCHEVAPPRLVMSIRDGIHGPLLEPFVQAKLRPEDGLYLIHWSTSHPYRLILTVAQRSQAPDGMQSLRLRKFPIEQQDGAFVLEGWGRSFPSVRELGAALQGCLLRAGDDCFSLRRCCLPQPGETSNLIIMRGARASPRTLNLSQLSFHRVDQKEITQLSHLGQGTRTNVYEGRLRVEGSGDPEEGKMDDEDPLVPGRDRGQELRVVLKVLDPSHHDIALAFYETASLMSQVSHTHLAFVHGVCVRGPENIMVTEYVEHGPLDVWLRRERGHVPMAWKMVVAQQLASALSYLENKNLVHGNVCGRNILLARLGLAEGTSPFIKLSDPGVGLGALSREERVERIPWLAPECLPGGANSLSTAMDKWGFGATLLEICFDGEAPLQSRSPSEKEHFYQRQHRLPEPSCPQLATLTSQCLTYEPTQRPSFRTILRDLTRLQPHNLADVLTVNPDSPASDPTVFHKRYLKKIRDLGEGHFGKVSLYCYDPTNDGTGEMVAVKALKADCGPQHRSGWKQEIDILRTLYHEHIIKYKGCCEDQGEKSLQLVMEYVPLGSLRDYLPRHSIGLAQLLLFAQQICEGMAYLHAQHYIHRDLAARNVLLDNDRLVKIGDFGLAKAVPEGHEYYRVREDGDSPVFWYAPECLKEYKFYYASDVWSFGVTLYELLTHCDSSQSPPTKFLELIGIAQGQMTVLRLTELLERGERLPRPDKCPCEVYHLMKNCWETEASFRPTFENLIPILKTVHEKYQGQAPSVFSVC
T1 sequence (Q13882 whole entry): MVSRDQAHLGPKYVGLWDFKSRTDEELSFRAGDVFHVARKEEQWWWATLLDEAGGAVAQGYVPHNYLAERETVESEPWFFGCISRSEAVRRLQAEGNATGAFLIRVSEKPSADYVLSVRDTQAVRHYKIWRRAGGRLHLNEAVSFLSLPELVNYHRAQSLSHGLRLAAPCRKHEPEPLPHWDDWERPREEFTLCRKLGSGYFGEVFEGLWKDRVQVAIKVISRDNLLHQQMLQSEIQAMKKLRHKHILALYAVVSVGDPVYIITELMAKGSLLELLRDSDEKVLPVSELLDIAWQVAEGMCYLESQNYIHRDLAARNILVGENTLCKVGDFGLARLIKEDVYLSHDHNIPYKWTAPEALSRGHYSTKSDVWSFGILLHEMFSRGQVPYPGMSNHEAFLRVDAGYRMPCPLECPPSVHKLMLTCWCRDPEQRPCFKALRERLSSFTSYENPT
Chain of SRPK3 (Q9UPE1 whole entry): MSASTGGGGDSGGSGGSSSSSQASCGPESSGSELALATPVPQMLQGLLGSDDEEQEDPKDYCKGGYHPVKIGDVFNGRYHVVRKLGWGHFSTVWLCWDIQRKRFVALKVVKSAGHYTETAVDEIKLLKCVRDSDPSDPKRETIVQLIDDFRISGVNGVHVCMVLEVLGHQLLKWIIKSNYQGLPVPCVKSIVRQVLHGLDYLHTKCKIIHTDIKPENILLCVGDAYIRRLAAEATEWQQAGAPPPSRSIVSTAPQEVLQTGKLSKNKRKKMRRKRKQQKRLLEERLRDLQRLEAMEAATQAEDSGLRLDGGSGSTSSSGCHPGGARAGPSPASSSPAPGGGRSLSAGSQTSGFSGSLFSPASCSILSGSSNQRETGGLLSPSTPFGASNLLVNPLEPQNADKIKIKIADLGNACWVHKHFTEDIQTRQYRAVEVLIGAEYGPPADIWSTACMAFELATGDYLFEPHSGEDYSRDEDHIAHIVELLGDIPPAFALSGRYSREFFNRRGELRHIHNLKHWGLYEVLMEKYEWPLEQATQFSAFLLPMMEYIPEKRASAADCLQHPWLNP
Chain of PIK3CA (P42336 whole entry): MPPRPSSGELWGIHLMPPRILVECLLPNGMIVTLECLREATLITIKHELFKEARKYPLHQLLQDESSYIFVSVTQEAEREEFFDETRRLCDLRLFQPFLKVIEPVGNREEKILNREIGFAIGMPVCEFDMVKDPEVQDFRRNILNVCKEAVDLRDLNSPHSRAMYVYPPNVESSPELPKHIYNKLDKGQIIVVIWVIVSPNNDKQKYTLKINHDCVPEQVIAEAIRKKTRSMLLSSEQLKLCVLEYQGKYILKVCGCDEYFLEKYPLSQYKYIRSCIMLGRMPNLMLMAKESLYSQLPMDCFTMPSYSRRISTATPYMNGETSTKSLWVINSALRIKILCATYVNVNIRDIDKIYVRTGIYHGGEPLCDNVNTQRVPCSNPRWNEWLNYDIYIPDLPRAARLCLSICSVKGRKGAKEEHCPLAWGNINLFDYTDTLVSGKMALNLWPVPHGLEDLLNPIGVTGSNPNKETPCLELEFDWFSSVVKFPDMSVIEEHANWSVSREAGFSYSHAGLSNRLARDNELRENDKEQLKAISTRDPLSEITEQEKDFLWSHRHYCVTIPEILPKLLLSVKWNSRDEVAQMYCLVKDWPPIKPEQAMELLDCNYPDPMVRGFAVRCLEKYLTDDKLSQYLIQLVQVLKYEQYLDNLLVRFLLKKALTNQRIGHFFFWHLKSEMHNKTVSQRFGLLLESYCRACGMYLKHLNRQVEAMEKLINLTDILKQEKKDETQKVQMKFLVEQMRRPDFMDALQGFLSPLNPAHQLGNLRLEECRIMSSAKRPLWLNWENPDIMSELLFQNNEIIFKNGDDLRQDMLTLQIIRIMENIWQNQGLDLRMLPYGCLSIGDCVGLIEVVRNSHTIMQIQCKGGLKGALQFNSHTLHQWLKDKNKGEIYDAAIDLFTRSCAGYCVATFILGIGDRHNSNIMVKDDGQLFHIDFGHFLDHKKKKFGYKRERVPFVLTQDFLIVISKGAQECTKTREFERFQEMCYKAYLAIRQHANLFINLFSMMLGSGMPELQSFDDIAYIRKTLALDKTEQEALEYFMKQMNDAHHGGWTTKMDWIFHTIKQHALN
Chain of IRAK1 (P51617 whole entry): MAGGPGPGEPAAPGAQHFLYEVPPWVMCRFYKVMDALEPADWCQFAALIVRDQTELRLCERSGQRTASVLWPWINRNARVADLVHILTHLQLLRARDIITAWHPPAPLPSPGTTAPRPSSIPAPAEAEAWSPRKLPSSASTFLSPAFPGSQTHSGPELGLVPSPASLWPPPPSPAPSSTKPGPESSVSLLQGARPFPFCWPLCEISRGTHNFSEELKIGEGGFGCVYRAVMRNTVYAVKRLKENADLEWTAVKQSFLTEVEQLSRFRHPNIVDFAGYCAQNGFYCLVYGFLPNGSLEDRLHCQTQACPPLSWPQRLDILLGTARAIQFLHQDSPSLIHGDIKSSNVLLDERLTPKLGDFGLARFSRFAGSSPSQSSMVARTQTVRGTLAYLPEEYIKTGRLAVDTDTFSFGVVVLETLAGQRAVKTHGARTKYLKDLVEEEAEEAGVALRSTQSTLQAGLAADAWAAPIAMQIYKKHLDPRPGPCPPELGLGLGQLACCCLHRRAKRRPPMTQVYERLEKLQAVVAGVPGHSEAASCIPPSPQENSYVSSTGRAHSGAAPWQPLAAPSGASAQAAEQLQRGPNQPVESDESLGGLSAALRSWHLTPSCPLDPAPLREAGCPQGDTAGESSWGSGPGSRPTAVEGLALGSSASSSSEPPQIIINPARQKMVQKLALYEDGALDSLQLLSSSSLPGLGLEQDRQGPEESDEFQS
Chain of LYN (P07948 whole entry): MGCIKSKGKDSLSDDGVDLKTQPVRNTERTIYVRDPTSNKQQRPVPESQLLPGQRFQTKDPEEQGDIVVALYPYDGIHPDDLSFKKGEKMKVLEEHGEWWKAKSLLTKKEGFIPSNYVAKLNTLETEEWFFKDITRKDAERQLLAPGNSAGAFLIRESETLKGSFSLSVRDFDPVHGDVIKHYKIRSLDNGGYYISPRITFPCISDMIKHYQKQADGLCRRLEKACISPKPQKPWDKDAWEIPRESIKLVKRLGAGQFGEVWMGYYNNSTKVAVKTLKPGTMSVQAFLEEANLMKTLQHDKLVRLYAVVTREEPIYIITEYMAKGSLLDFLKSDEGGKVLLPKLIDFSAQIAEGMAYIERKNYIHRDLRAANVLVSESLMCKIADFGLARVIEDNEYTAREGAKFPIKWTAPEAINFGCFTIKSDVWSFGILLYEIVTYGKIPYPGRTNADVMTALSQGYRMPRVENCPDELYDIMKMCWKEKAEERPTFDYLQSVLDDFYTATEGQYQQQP

| SMILES | remaining binding at 10 µM (ACVR2B) [%] | remaining binding at 10 µM (PRKX) [%] | remaining binding at 10 µM (ULK2) [%] | remaining binding at 10 µM (MST1R) [%] | remaining binding at 10 µM (INSRR) [%] | remaining binding at 10 µM (IRAK1) [%] | remaining binding at 10 µM (TNK1) [%] | remaining binding at 10 µM (BRK) [%] | remaining binding at 10 µM (RIOK2) [%] | remaining binding at 10 µM (LYN) [%] | remaining binding at 10 µM (BRAF) [%] | remaining binding at 10 µM (CAMKK1) [%] | remaining binding at 10 µM (SRPK3) [%] | remaining binding at 10 µM [1] [%] | remaining binding at 10 µM (MKK7) [%] | remaining binding at 10 µM (DMPK) [%] | remaining binding at 10 µM (PIK3CA) [%] | remaining binding at 10 µM (FLT1) [%] | remaining binding at 10 µM (NDR1) [%] | remaining binding at 10 µM (KIT(A829P)) [%] | further results |
| --- | --- | --- | --- | --- | --- | --- | --- | --- | --- | --- | --- | --- | --- | --- | --- | --- | --- | --- | --- | --- | --- |
| COc1ccc(-c2cnccc2-c2cnc(NC(=O)C(C)C)s2)c(C(F)(F)F)c1 [CRT0105446, N-{5-[3-(4-Methoxy-2-trifluoromethyl-phenyl)-pyridin-4-yl]-hiazol-2-yl}-isobutyramide] | 100 | 100 | 100 | 100 | 96 | 94 | 67 | 100 | 16 | 100 | 79 | 82 | 93 | 100 | 97 | 100 | 100 | 80 | 100 | 100 | remaining binding at 10 µM (KIT(D816V)): 83%; remaining binding at 10 µM (ARK5): 59%; remaining binding at 10 µM (DAPK1): 100% |
| Cc1ccc(-c2cnccc2-c2cnc(Nc3ccc(O)cc3)s2)c(Cl)c1 [CRT0105950, 4-{5-[3-(2-Chloro-4-methyl-phenyl)-pyridin-4-yl]-thiazol-2-ylamino}-phenol] | 32 | 100 | 20 | 92 | 0.15 | 56 | 3.7 | 100 | 2 | 26 | 93 | 26 | 62 | 81 | 38 | 100 | 100 | 21 | 86 | 35 | remaining binding at 10 µM (KIT(D816V)): 2.8%; remaining binding at 10 µM (ARK5): 49%; remaining binding at 10 µM (DAPK1): 82% |
